# Test results reported in patent publication US8722714B2, “Oxazolidine derivatives as NMDA antagonists” (The Honk Kong University of Science and Technology, priority 2008, dated 2014).
# Assays:
# [1] = system: rat primary cortical neurons; experiment: Immunocytochemical analysis of neurons after NMDA insult; format: cell-based; details: compound 10 μg/ml; beta-tubulin type III and DAPI stain
# Protocol: Primary cortical and hippocampal neurons were prepared from embryonic day 18 (E18) Sprague-Dawley rats. Neurons were plated on 35-mm dishes (NUNC) at a density of 1×10^6 cells per plate using Neurobasal medium (Invitrogen) supplemented with 2% B27 (Invitrogen). Neurons at 11-12 days in vitro (DIV) were subjected to treatment with the test compounds. Neurons were pretreated with the test compound for 2 hours prior to NMDA treatment. 0.1 μM (+)-MK-801 Hydrogen Maleate (Sigma) was added as a positive control. Briefly, the neurons were rinsed with Locke's solution (5 mM potassium chloride, 128 mM sodium chloride, 2.7 mM calcium chloride, 1 mM di-sodium hydrogen orthophosphate, 5 mM HEPES and 10 mM glucose in Milli-Q water) without Mg^2+, and incubated with addition of glycine (10 μM) for 15 minutes. After the incubation, the neurons were co-treated with the test compound (dissolved in Locke's plus glycine solution) and NMDA (20 μM; Sigma) for 20 minutes. Neurons were rinsed with Locke's plus Mg^2+ and replaced with fresh growth medium. […] Neurons were then analyzed by a fluorescence microscope using a 40× objective (DMRA; Leica). […]
# LC-02 (10 μg/mL) protects embryonic rat primary cortical neurons against NMDA excitotoxicity. Neurites were immunostained with beta-tubulin type III antibody and detected with FITC-conjugated antibody. […]
# mice = experiment: Open Field Test (OFT); format: in vivo; details: 100 mg/kg p.o., 7 times, vs control group
# adenosine A3 receptor = target: T1, adenosine A3 receptor (Homo sapiens, UniProt P0DMS8); experiment: Ligand binding assay (High-throughput Profile, CEREP); details: [125I]AB-MECA, human A3 overexpressing cells
# T1 sequence (P0DMS8 1-318): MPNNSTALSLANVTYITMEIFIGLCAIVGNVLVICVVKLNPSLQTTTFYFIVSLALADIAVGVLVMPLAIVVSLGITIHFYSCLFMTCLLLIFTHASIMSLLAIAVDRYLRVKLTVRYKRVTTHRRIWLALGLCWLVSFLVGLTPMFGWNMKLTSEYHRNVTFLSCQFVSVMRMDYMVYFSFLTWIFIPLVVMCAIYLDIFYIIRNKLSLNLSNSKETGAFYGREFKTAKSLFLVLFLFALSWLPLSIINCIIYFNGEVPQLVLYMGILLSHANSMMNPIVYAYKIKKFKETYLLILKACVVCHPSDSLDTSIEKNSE
# Protocol: (§1) To determine the pharmacological profile and potential targets of LC-02, 80 binding assays were performed (High-throughput Profile, CEREP, France). LC-02 was evaluated at a single concentration in these specific binding assays. […] A cutoff of 25% is considered as a moderate effect.
# (§2) Compound LC-02 (10 μM) was subjected to ligand binding assays with human A3 and rat kappa receptor overexpressing cells. Results are expressed as a percent of control specific agonist response [100-(measured specific response/control specific agonist response)×100] obtained in the presence of LC-02.
# Opioid (delta) = target: T2, Opioid (delta) (Homo sapiens, UniProt P41143); experiment: as above
# T2 construct: CEREP, France (contract assay, High-throughput Profile)
# Protocol: as §1, §2
# opioid kappa receptor = opioid kappa receptor (Rattus norvegicus, UniProt P34975); experiment: as above
# Protocol: as §1, §2
# Chain of opioid kappa receptor (P34975 whole entry): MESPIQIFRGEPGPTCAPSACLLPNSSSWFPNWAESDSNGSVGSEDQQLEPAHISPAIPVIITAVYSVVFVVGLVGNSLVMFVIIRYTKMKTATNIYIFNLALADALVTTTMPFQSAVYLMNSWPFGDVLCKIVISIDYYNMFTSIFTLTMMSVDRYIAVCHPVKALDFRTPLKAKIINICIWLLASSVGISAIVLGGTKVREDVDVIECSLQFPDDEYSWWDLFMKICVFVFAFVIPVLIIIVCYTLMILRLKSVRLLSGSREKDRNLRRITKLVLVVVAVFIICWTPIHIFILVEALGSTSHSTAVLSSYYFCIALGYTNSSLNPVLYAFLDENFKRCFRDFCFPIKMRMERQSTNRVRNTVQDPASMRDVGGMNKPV
# T2 sequence (P41143 whole entry): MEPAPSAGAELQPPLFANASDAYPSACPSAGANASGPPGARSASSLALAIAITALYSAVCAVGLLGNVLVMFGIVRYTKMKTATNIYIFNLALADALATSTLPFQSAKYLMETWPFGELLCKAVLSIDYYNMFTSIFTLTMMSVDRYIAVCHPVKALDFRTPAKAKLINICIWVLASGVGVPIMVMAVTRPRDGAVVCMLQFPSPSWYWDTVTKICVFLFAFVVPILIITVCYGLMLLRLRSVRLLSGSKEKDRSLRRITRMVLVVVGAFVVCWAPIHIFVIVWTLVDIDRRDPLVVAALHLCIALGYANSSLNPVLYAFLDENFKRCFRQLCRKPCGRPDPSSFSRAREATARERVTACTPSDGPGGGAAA
smiles,measurement,setting,value
CC[C@H]1N[C@@H](CC(C)C)C(CC)(CC)O1 [LC-02],protection against NMDA excitotoxicity and apoptosis (immunostaining),[1],protected the cells from excitotoxicity and the resulting apoptosis at a level similar to control cells
same,total distance travelled in the open field,mice,did not significantly differ
same,inhibition at 10 µM,adenosine A3 receptor,30%
same,inhibition at 10 µM,Opioid (delta),18%
same,% of inhibition of ligand binding,"opioid kappa receptor; 10 μM, [3H]U 69593, rat kappa receptor overexpressing cells",26%
same,inhibition at 10 µM,"opioid kappa receptor; [3H]U 69593, rat kappa receptor overexpressing cells",30%
